The text below walks through data of patent US6833368B2, “1, 2, 5, 10-tetrahydropyridazino[4, 5-b]quinoline-1,10-diones and their use for the treatment of pain” (AstraZeneca AB, priority 2000, dated 2004).

The target in data set [1] is T1, NMDA receptor glycine site (Rattus norvegicus, UniProt P35439).
T1 construct: The rat brain membranes used in the experiments were obtained from Analytical Biological Services Inc; tissue Analytical Biological Services Inc; host or cells: rat brain membranes (cerebral cortex and hippocampus, Sprague Dawley)
The experiment in a line: Test A: Inhibition of binding of [3H]-MDL105,519 to brain membranes. The conditions noted are these: inhibition of 1.2 nM [3H]MDL105,519 binding to brain membranes; rat or human membranes not specified. The protocol:
Test A: Inhibition of Binding of [^3H]-MDL105,519:
Binding of compounds to the NMDA receptor glycine site may be assessed by measuring the ability of test compounds to inhibit the binding of tritiated MDL105,519 to brain membranes bearing the receptor.
Rat Brain Membranes: The rat brain membranes used in the experiments were obtained from Analytical Biological Services Inc., and were prepared substantially in accordance with the method of B. M. Baron et al., J. Pharmacol. Exp. Ther. 250, 162 (1989). Briefly, fresh brain tissue including cerebral cortex and hippocampus from […] Sprague Dawley rats was homogenized in 0.32 M sucrose and centrifuged at low speed to separate cellular membranes from other cellular components. The membranes were then washed 3 times using deionized water, followed by treatment with 0.04% Triton X-100. Finally, membranes were washed six times in 50 mM Tris citrate buffer, pH 7.4, and frozen at −80° C. until use.
[^3H]MDL105,519 (72 Ci/mmol) was purchased from Amersham. Cold MDL105,519 was purchased from Sigma/RBI. Binding assays were performed substantially in accordance with the protocol of B. M. Baron et al., J. Pharmacol. Exp. Ther. 279, 62 (1996), as follows. On the day of the experiment, brain membranes were thawed at room temperature and suspended in 50 mM tris acetate buffer, pH 7.4 (“TAB”). Seventy-five micro grams per milliliter protein (by using the BioRad dye) were used for competition binding. The experiments were carried out using 96-well plates. Membranes were incubated with 20 μL of compounds of various concentrations and 1.2 nM [^3H]MDL105,519 for 30 minutes at room temperature in a total volume of 250 μL. Non specific binding was determined by using 100 μM of unlabeled MDL105,519. The unlabeled MDL105,519 and compounds were dissolved as 12.5 mM stock solutions in DMSO. Final DMSO concentration in each well was kept below 1%, which concentration was found not to alter the binding results. After incubation, unbound [^3H]MDL105,519 was removed by filtration onto GF/B Unifilter plates using a Packard harvester. Filters were washed four times with ice cold TAB (total of 1.2 mL buffer). The plates were dried overnight at room temperature and bound radioactivity was measured on a Packard TopCount after the addition of 45 μL per well of the MICROSCINT O.
Human Brain Membranes: Human brain membranes were obtained from Analytical Biological Services Inc., and assays were performed as described for rat membranes.
Data analysis: Data was analyzed using a Microsoft Excel spreadsheet and GraphPad Prizm software and potency of compounds is expressed as the Ki (nM).

The subject of data set [2] is CCI rats (thermal hyperalgesia). To be noted: oral, three times daily for 5 days.
Description: The anti-hyperalgesic properties of a compound may be tested with the Chronic Constriction Injury (“CCI”) model.
Procedurally, Sprague-Dawley rats (250-350 g) are anesthetized with sodium pentobarbital and the common sciatic nerve is exposed at the level of the mid thigh by blunt dissection through the biceps femoris. A section of nerve (about 7 mm), proximal to the sciatic trifucation, is freed of tissue and ligated at four positions with chromic gut suture. The suture is tied with about 1 mm spacing between ligatures. The incision is closed in layers and the animals are allowed to recuperate. […] To perform the test, animals are habituated on an elevated glass floor. A radiant heat source is aimed at the mid-plantar hindpaw (sciatic nerve territory) through the glass floor with a 20 second cut-off used to prevent injury to the skin. The latencies for the withdrawal reflex in both hind paws are recorded.
Responses to test compounds are evaluated at different times after oral administration to determine the onset and duration of compound effect. When performing the test, groups of CCI rats receive either vehicle or the test compound orally three times daily for 5 days. […] Compound efficacy is expressed as mean percentage decrease of hyperalgesia compared to that of vehicle-treated animals, calculated as follows: [formula]

In general, Ki refers to a measure of affinity in units of concentration, obtained from inhibition or displacement. As to `O=c1c2ccc(Cl)cc2[nH]c2c(O)nn(C3CCSc4ccccc43)c(=O)c12` (racemic) [Ex. 1, (+/−)-7-chloro-4-hydroxy-2-(2H,3H,4H-Benzo[e]thian-4-yl)-1,2,5,10-tetrahydropyridazino[4,5-b]quinoline-1,10-dione], the Ki in data set [1] was determined as 0.411 µM. In data set [2] (at the MED, versus vehicle-treated animals), the “Test C % Inh. (percent decrease of hyperalgesia at MED)” value is reported as 56%. Besides, in data set [2] (dose giving statistically significant decrease in hyperalgesia), the “Test C MED (minimum effective dose)” value is 30 mg/kg/day.

Broadly, the melting point is the temperature of the solid-liquid transition. On to `O=c1c2ccc(Cl)cc2[nH]c2c(O)nn(C3CCOc4ccccc43)c(=O)c12` (racemic) [Ex. 2, (+/−)-7-Chloro-4-hydroxy-2-(chroman-4-yl)-1,2,5,10-tetrahydropyridazino[4.5-b]quinoline-1.10-dione], for which the melting point is > 300 °C. The compound also came in with a Ki in data set [1] of 0.557 µM.

As to `O=c1c2ccc(Cl)cc2[nH]c2c(O)nn(C3CCCc4sccc43)c(=O)c12` (racemic) [Ex. 3, (+/−)-7-Chloro-4-hydroxy-2-(4,5,6,7-tetrahydrobenzo[b]thien-4-yl)-1,2,5,10-tetrahydropyridazino[4,5-b]quinoline-1.10-dione], the melting point was > 300 °C. This compound also had a Ki in data set [1] of 0.514 µM.

Consider `O=c1c2ccc(Cl)cc2[nH]c2c(O)nn(C3CCCc4ccccc43)c(=O)c12` (racemic) [Ex. 4, (+/−)-7-Chloro-4-hydroxy-2-(1,2,3,4-tetrahydronaphth-1-yl)-1.2,5,10-tetrahydropyridazino[4,5-b]quinoline-1,10-dione], for which the melting point was > 300 °C. Moreover, affinity in data set [1] was put at a Ki of 0.725 µM.
